# Data from patent US20030113665A1, “Optical data medium containing, in the information layer, a dye as a light-absorbing compound” (priority 2001, published 2003).
# Like-named read-outs stand apart in the source and are kept apart here.
# How the values were obtained:
# [1] = Recording/readout test of optical disc with vapour-deposited phthalocyanine information layer
# From the text: Directly on top of the grooved surface the information layer of 40 nm was coated by vacuum vapor deposition method. […] Total thickness of the adhesive layer and the cover layer was set as 100 μm.
# The parameters of readout/recording setup was as follows.
# Numerical aperture of the objective lens=0.85, two element lens
# Readout laser power=0.30 mW
# Writing laser power=6.0 mW
# Pulse strategy=7 pulses with 50% duty inside one mark
# The dye dichloro-silicon-phthalocyanine (SiCl2Pc) was applied for the information layer.
# [2] = UV absorption spectra in solution; type: physicochemical
# [3] = Solubility in coating solvent; type: physicochemical; conditions: in TFP (2,2,3,3-tetrafluoropropanol)
# [4] = UV absorption spectra in solution; type: physicochemical; conditions: for UV (DMF): λmax: in DMF; for UV (dioxane): λmax: in dioxane; for λmax: in dioxane (Tables 1-3); for λ1/2-λ1/10: on the shortwave slope (Tables 1-3)
# From the text: For a, preferably singly recordable, optical data carrier according to the invention which is written and read by light from a blue laser such merocyanine dyes are preferred whose absorption maximum λmax2 is in the range from 420 bis 550 nm, wherein the wavelength λ½ at which the extinction on the shortwave slope of the absorption maximum of the wavelength λmax2 is half the extinction value at λmax2 and the wavelength λ 1/10 at which the extinction on the shortwave slope of the absorption maximum of the wavelength λmax2 is a tenth of the extinction value at λmax2, are preferably in each case no further than 50 nm away from each other.
# The absorption spectra are measured for example in solution.
# Suitable merocyanines having the required spectral properties are in particular those in which the change in dipole moment Δμ=|μg-μag|, i.e. the positive difference between the dipole moments in the ground state and in the first excited state, is as small as possible, preferably <5 D, and particularly preferably <2 D. One method of determining such a change in dipole moment Δμ is described for example in F. Würthner et al., Angew. Chem. 1997, 109, 2933 and in the literature cited therein. Low solvatochromism (dioxane/DMF) is also a suitable criterion for selection. Merocyanines are preferred whose solvatochromism Δλ=|λDMF-λdioxane|, i.e. the positive difference between the absorption wavelengths in the solvents dimethylformamide and dioxane is <20 nm, particularly preferably <10 nm and very particularly preferably <5 nm.
# [5] = molar extinction coefficient at absorption maximum
# [6] = = |λDMF − λdioxane| (Tables 1-3)
compound,measurement,setting,value
"[Cl][Al]1[n]2c3c4ccccc4c2/N=C2N=C(/N=c4/c5ccccc5/c([n]41)=N/C1=NC(=N\3)/c3ccccc31)c1ccccc1\2 [Example 1, monochloro-aluminium-phthalocyanine]",readout stability,[1],surprisingly good
CCCCN1C(=O)C(C#N)=C(C)/C(=C\C=C2/N(C)c3ccccc3C2(C)C)C1=O [Example 24],λ½-λ1/10 (longwave slope),[2],12 nm
same,Solubility,[3],> 2%
same,UV (DMF): λmax,[4],522 nm
same,UV (dioxane): λmax,[4],520 nm
CCCN1C(=O)C(C#N)=C(C)/C(=C\C=C\N(C)c2ccc(OC)cc2)C1=O [Example 25],Solubility,[3],> 2%
same,UV (DMF): λmax,[4],477 nm
same,UV (dioxane): λmax,[4],482 nm
same,ε,[4]; [5],73013 L/mol/cm
same,λ½-λ1/10 (shortwave slope),[4],33 nm
same,Δλ,[4]; solvatochromism |λDMF-λdioxane|,5 nm
CC1=C([n+]2ccccc2)C(=O)NC(=O)/C1=C/C=C1\N(C)c2ccccc2C1(C)C [Example 26],UV (methanol): λmax,[4]; in methanol,513 nm
same,ε,[4]; [5],86510 L/mol/cm
same,λ½-λ1/10 (shortwave slope),[4],38 nm
CCCCCCCCCCCCN1C(=O)/C(=C/c2ccc(N(C)C)o2)C(=O)N(C)C1=O [Example 27],UV (dioxane): λmax,[4],483 nm
same,λ½-λ1/10 (shortwave slope),[4],32 nm
Cc1cnc(N(C)C)s1 [Example 28],Δλ,[4]; [6],16 nm
same,ε,[4]; Tables 1-3,40990 L/mol/cm
same,λmax,[4],470 nm
same,λ1/2-λ1/10,[4],32^3) nm
C=C1N(C)c2ccccc2C1(C)C [Example 56],Δλ,[4]; [6],5 nm
same,ε,[4]; Tables 1-3,46470 L/mol/cm
same,λmax,[4],499 nm
same,λ1/2-λ1/10,[4],36^3) nm
C=C1N(C)c2ccc(C)cc2C1(C)C [Example 63],Δλ,[4]; [6],6 nm
same,ε,[4]; Tables 1-3,41530 L/mol/cm
same,λmax,[4],503 nm
same,λ1/2-λ1/10,[4],36^3) nm
CN1/C(=C\C=C(\C#N)c2nc3ccccc3s2)C(C)(C)c2ccccc21 [Example 76],λmax,[4],462 nm
same,λ1/2-λ1/10,[4],34^3) nm
C=C1N(CCCCN2C(=C)C(C)(C)c3ccccc32)c2ccccc2C1(C)C [Example 77],λmax,[4],500 nm
dichloro-silicon-phthalocyanine [Example 2],readout stability,"[1]; SiO2 buffer layer and PSA layer, 100 μm cover",very high
